From the supplement of paper PMC10702517
± gives the standard deviation.

Experiment: chemical recovery from spiked human plasma; higher = better extraction
Settings: pooled human plasma
[1] = extraction method: SPE only (HLB 96-well)
[2] = extraction method: solvent precipitation (ACN + hexane)
[3] = extraction method: SPE only (HLB 96-well), PES comparison experiment
[4] = extraction method: PES+SPE (3 d PDMS equilibration then HLB SPE)

Compound | chemical recovery [1] [%] | chemical recovery [2] [%] | chemical recovery [3] [%] | chemical recovery [4] [%]
O=S1OC[C@@H]2[C@H](CO1)[C@@]1(Cl)C(Cl)=C(Cl)[C@]2(Cl)C1(Cl)Cl (stereo partly drawn) [alpha-Endosulfan] | 0.649 ± 0.17 | 13.6 ± 2.6 | – | –
O=S(=O)(O)CCC(F)(F)C(F)(F)C(F)(F)C(F)(F)C(F)(F)C(F)(F)F [6.2 fluorotelomer sulfonic acid] | 35.9 ± 1.7 | 75.6 ± 2.9 | 43.1 ± 5 | –
CC(C)CC(C)NC1=CC(=O)C(Nc2ccccc2)=CC1=O (centres undefined) [6PPD-quinone] | 51.9 ± 4.4 | 79.3 ± 4 | – | 16.3 ± 4.4
O=C(c1ccccc1)c1ccc(O)cc1 [4-Hydroxybenzophenone] | 53 ± 4.1 | 77.7 ± 3.6 | – | 65.9 ± 5.4
NC(=O)C(F)(F)C(F)(F)F [Pentafluoropropionamide] | 0.923 ± 0.9 | 0.174 ± 0.24 | – | 9.12 ± 7.6
O=C(O)C(F)(F)C(F)(F)C(F)(F)C(F)(F)C(F)(F)C(F)(F)C(F)(F)C(F)(F)C(F)(F)C(F)(F)F [Perfluoroundecanoic-acid] | 26.8 ± 6 | – | – | –
CC(C)(c1ccccc1)c1ccc(O)cc1 [4-Cumylphenol] | 30.6 ± 7.2 | 46.6 ± 4.5 | – | –
CN1COCN(Cc2cnc(Cl)s2)/C1=N\[N+](=O)[O-] [Thiamethoxam] | 50 ± 3.5 | 73 ± 2.7 | – | 55.7 ± 4.8
O=C1CCCCCCCCCCCN1 [Dodecane-12-lactam] | 53.4 ± 0.92 | 66.7 ± 1.7 | – | 47.4 ± 4.3
CCCCCCN [Hexylamine] | 8.65 ± 5.7 | 19.7 ± 6 | – | 3.2 ± 1.1
O=C(O)C(F)(F)C(F)(F)C(F)(F)C(F)(F)C(F)(F)F [Perfluorohexanoic acid] | 35.5 ± 3.9 | 75.3 ± 4.1 | 44.4 ± 8.7 | 40.2 ± 4.7
CCCCCOC(=O)c1ccccc1C(=O)OCCCCC [Di-n-pentylphthalate] | 29.6 ± 6.2 | – | – | –
C=CCC1(C(C)CCC)C(=O)NC(=O)NC1=O (centres undefined) [Secobarbital] | 36.7 ± 1.2 | 72.8 ± 5.8 | 61.1 ± 8.4 | 53.8 ± 5
CCCCC(CC)COC(=O)CC(C(=O)OCC(CC)CCCC)S(=O)(=O)O (centres undefined) [Dioctylsulfosuccinate] | 26.5 ± 1.6 | – | – | –
CCCCCCCCCC[N+](C)(C)CCCCCCCCCC [Didecyldimethylammonium] | 67.1 ± 21 | – | – | –
CC(C1=C(CCN(C)C)Cc2ccccc21)c1ccccn1 (centres undefined) [Dimetindene] | 24.1 ± 2.6 | 58.5 ± 5.4 | – | 0.267 ± 0.076
CC(=O)OCC(COC(C)=O)OC(C)=O [Triacetin] | 30.3 ± 3.4 | – | – | –
Nc1nc(=O)n([C@@H]2CS[C@H](CO)O2)cc1F [Emtricitabine] | 14.2 ± 4.3 | 71.1 ± 4.1 | – | –
Nc1ccc2nc3c(N)cccc3nc2c1 [1,7-Diaminophenazine] | 52.7 ± 6.3 | – | – | 15 ± 1.5
CC(C)NC(=O)N1CC(=O)N(c2cc(Cl)cc(Cl)c2)C1=O [Iprodione] | 28.3 ± 5.6 | 6.49 ± 2.1 | – | –
O=C(O)CCC(F)(F)C(F)(F)C(F)(F)F [3.3-FTCA] | 0.288 ± 0.082 | – | – | 2.63 ± 2.7
CCN(CC)C(=O)c1cccc(C(=O)O)c1 [DEET-carboxylic-acid] | 43.9 ± 4.5 | 68.1 ± 5.1 | – | 42.3 ± 4.4
COc1cc(Cl)c(OC)cc1N [4-Chloro-2,5-dimethoxyaniline] | 26.5 ± 3.5 | 55 ± 2.7 | – | 11 ± 2.9
CCCC(C)C1(CC)C(=O)NC(=O)NC1=O (centres undefined) [Pentobarbital] | 43.8 ± 2 | 75.7 ± 6.9 | – | 49.6 ± 5.1

Compound | chemical recovery [1] [%] | chemical recovery [2] [%] | chemical recovery [3] [%] | chemical recovery [4] [%]
Cc1nccn1CC1CCc2c(c3ccccc3n2C)C1=O (centres undefined) [Ondansetron] | 32.6 ± 2 | 73.2 ± 2.9 | 45.7 ± 7.4 | 15.3 ± 3.4
CS(=O)(=O)OC[C@H](O)[C@@H](O)COS(C)(=O)=O [Treosulfan] | 18.7 ± 3.8 | – | – | 7.98 ± 1.3
C#CCOS(=O)OC1CCCCC1Oc1ccc(C(C)(C)C)cc1 (centres undefined) [Propargite] | 42.4 ± 10 | – | – | –
CC(=O)Nc1ccccc1 [Acetanilide] | 42 ± 2.4 | 80.1 ± 3.5 | – | 40.3 ± 9.3
CC(C)(c1ccccc1)c1cc(-n2nc3ccccc3n2)c(O)c(C(C)(C)c2ccccc2)c1 [UV-234] | 0.688 ± 0.28 | – | – | –
Oc1c(Br)cc(Br)cc1Br [2,4,6-Tribromophenol] | 35 ± 8.7 | 55.2 ± 4.1 | – | 46.9 ± 0.63
ClC=C(c1ccc(Cl)cc1)c1ccc(Cl)cc1 [4,4'-DDMU] | 1.65 ± 0.55 | 30.1 ± 2.7 | – | 54.3 ± 19
Cc1cccc(C)c1NC(=O)CS(=O)(=O)O | 5.38 ± 9.3 | – | 38.3 ± 6.6 | 21.8 ± 8.2
O=S(=O)(O)CCC(F)(F)C(F)(F)C(F)(F)C(F)(F)C(F)(F)C(F)(F)C(F)(F)C(F)(F)F [8.2-Fluorotelomersulfonic-acid] | 34 ± 2.1 | – | – | –
Oc1c(Cl)cc(-c2ccc(Cl)cc2)cc1Cl [4-Hydroxy-3,4',5-trichlorobiphenyl] | 36.1 ± 5.9 | 27.9 ± 1.8 | – | 46.3 ± 7.3
CC(=O)CCc1ccc(O)cc1 [4-(4-Hydroxyphenyl)butan-2-one] | 60 ± 5.2 | 64.5 ± 4 | – | 64.8 ± 5.4
CCOP(=S)(OCC)Oc1nc(Cl)c(Cl)cc1Cl [Chlorpyrifos] | – | – | 33.3 ± 7.2 | –
CCCCCCCCCCCCS(=O)(=O)O [1-Dodecanesulfonic-acid] | 25.6 ± 3 | 52.1 ± 2.3 | – | –
COc1c(C(C)(C)C)cc([N+](=O)[O-])c(C)c1[N+](=O)[O-] [Musk ambrette] | 2.96 ± 0.74 | – | – | –
O=C(O)c1ccccc1C(=O)OCc1ccccc1 [Monobenzyl-phthalate] | 57.7 ± 4.3 | 65.3 ± 7.2 | – | 59.6 ± 9.9
Cc1cnc2ccc3c(nc(N)n3C)c2n1 [2-Amino-3,8-dimethylimidazo-[4,5-f]quinoxaline (MeIQx)] | 49.1 ± 2.6 | 72.4 ± 3.3 | – | 48.7 ± 6
CC(C)NCC(O)COc1ccc(CC(=O)O)cc1 (centres undefined) [Metoprolol-acid] | 52.1 ± 13 | 47.1 ± 8.4 | – | –
CCc1cc(C)cc(CC)c1-c1c(OC(=O)C(C)(C)C)n2n(c1=O)CCOCC2 [Pinoxaden] | 21.1 ± 3.2 | – | – | 0.0892 ± 0.042
O=C(O)C1C(C(=O)O)C2(Cl)C(Cl)=C(Cl)C1(Cl)C2(Cl)Cl (centres undefined) [Chlorendic-acid] | 23.9 ± 3.7 | 28.2 ± 7.5 | – | 27 ± 6.5
CC(C)(C)c1cc(CCC(=O)NCCCCCCNC(=O)CCc2cc(C(C)(C)C)c(O)c(C(C)(C)C)c2)cc(C(C)(C)C)c1O [Irganox-1098] | – | 55.3 ± 6.4 | – | –
CC(C)(C)c1ccc2oc(-c3ccc(-c4nc5cc(C(C)(C)C)ccc5o4)s3)nc2c1 [Fluorescent-Brightener-184] | 0.938 ± 0.39 | – | – | –
CCCCc1ncc(/C=C(\Cc2cccs2)C(=O)O)n1Cc1ccc(C(=O)O)cc1 [Eprosartan] | 44.3 ± 4.6 | – | – | –
O=C(NC1CCCCC1)NC1CCCCC1 [Dicyclohexylurea] | 56.9 ± 0.74 | 78.6 ± 1.8 | – | 54.4 ± 4.7
CCN(CCC#N)c1ccc(N=Nc2c(Br)cc([N+](=O)[O-])cc2Br)cc1 [Disperse-Orange-61] | 39.7 ± 11 | 80.2 ± 8.3 | – | –

Compound | chemical recovery [1] [%] | chemical recovery [2] [%] | chemical recovery [3] [%] | chemical recovery [4] [%]
C[N+](C)(C)Cc1ccccc1 [Benzyltrimethylammonium] | 3.88 ± 2.8 | 75.8 ± 2.6 | – | –
c1ccc2c(c1)ccc1c3ccccc3ccc21 [Chrysene] | 10.9 ± 2.5 | – | – | –
CC(C)Oc1cccc(NC(=O)c2ccccc2C(F)(F)F)c1 [Flutolanil] | 38.9 ± 0.5 | 60.8 ± 4.7 | – | 53.5 ± 4.5
Oc1ccnc2ccccc12 [4-Hydroxyquinoline] | 44.7 ± 1.7 | – | – | –
COC(=O)CCc1cc(C(C)(C)C)c(O)c(C(C)(C)C)c1 [Methyl-3-(3,5-di-tert-butyl-4-hydroxyphenyl)propionate] | 24.9 ± 3.3 | 57.6 ± 7 | – | –
CCCCCCCCCCCC(=O)NCCO [N-Lauroylethanolamine] | 47.5 ± 6 | 74.2 ± 3.9 | – | –
[O-][n+]1cccc2ccccc21 [Quinoline N-oxide] | 43.8 ± 0.64 | 76.1 ± 3.2 | – | 42.6 ± 6
Nc1c(Cl)c(Cl)nc(C(=O)O)c1Cl [Picloram] | 34.9 ± 2.7 | 63.3 ± 3.8 | – | 29.5 ± 5.1
Cc1c(Cl)cccc1Nc1ccccc1C(=O)O [Tolfenamic-acid] | 36.5 ± 12 | 47.5 ± 1.9 | – | 56.7 ± 5.2
COc1ccc2[nH]cc(CCNC(C)=O)c2c1 [Melatonin] | 41.7 ± 7.2 | 74.6 ± 2.9 | – | 37.8 ± 2.6
CCCC(C)(COC(N)=O)COC(=O)NC(C)C (centres undefined) [Carisoprodol] | – | 78.1 ± 5.9 | – | –
c1ccc2[nH]c(-c3cscn3)nc2c1 [Thiabendazole] | 41.3 ± 3 | 80.4 ± 4.5 | 49.3 ± 3.5 | 40.6 ± 4.9
COc1ccc2c(c1)[C@]13CCCC[C@@H]1[C@H](C2)N(C)CC3 [Dextromethorphan] | 39.3 ± 3.3 | 70.1 ± 5.1 | – | 0.431 ± 0.16
Cn1sc(Cl)cc1=O [Methylchloroisothiazolinone] | 0.906 ± 0.2 | 0.0132 ± 0.023 | 0.321 ± 0.64 | –
COc1ccc2c(c1)[nH]c1c(C)nccc12 [Harmine] | 37.3 ± 2.9 | – | 48.6 ± 4.2 | 37.8 ± 5.3
C[N+]1(C)CCCCC1 [Mepiquat] | 0.813 ± 0.44 | 108 ± 18 | 11.3 ± 9.5 | 0.578 ± 0.063
CNC(=O)Oc1cccc(/N=C/N(C)C)c1 [Formetanate] | 8.98 ± 3.5 | 2.27 ± 3.9 | – | –
CC(C)OC(=O)Nc1cccc(Cl)c1 [Chlorpropham] | 41.5 ± 2.7 | 43.8 ± 4.5 | – | 37.9 ± 13
Oc1ccc2[nH]ccc2c1 [5-Hydroxyindole] | – | 39.3 ± 5.3 | – | –
Clc1ccccc1C(c1ccccc1)(c1ccccc1)n1ccnc1 [Clotrimazole] | – | – | 56.3 ± 11 | –
C[N+](C)(C)CCCl [Chlormequat] | 0.778 ± 0.52 | 85 ± 12 | 10.2 ± 8.2 | 0.51 ± 0.024
Oc1ccc2c(c1)[C@@]13CCCC[C@@]1(O)[C@@H](C2)N(CC1CCC1)CC3 [Butorphanol] | 34.7 ± 9.8 | 65.5 ± 6.6 | – | –
